Measured values published in ChEMBL document CHEMBL3763148, “Synthesis, structure elucidation, DNA-PK and PI3K and anti-cancer activity of 8- and 6-aryl-substituted-1-3-benzoxazines” (Eur J Med Chem, 2016).

Columns and labels:
[1] = target: T1, DNA-dependent protein kinase catalytic subunit (Homo sapiens, UniProt P78527); test: Inhibition of human DNA-PK using EPPLSQEAFADLWKK as substrate at 10 uM by HTRF assay
[2] = target: T2, Phosphatidylinositol 4,5-bisphosphate 3-kinase catalytic subunit beta isoform (Homo sapiens, UniProt P42338); test: Inhibition of PI3Kbeta (unknown origin) at 10 uM incubated for 60 mins by kinase-glo luminescence assay
Target sequence in this assay (P42338 whole entry, looked up, canonical isoform): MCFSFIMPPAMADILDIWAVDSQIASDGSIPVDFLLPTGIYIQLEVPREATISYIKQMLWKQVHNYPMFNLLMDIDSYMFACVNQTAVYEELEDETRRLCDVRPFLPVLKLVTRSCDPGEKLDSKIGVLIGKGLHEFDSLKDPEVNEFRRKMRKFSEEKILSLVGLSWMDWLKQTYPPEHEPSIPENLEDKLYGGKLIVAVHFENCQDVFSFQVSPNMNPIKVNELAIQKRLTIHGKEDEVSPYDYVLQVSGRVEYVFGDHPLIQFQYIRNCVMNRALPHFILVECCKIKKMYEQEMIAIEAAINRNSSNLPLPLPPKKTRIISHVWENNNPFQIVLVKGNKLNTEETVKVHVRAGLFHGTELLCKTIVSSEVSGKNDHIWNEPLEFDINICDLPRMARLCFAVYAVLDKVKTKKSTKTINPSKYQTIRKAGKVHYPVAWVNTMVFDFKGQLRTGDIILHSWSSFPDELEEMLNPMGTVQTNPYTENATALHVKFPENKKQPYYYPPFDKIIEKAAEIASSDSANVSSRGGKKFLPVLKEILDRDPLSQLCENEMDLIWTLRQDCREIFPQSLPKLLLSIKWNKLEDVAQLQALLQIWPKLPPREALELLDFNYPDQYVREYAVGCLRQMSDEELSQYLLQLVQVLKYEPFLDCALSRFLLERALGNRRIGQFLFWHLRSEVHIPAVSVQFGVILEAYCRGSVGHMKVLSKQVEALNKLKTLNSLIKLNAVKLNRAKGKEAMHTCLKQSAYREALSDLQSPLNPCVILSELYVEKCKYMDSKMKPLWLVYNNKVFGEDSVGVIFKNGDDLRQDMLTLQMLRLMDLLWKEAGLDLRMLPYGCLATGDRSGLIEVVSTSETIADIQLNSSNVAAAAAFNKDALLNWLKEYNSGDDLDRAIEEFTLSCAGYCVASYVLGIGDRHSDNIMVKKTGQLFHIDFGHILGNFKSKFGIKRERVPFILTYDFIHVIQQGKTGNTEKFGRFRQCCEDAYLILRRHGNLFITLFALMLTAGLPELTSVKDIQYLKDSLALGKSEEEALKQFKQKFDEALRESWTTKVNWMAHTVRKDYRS

[3] = target: T3, Phosphatidylinositol 4,5-bisphosphate 3-kinase catalytic subunit delta isoform (Homo sapiens) (UniProt O00329); test: Inhibition of PI3Kdelta (unknown origin) at 10 uM incubated for 60 mins by kinase-glo luminescence assay
T3 sequence (whole entry): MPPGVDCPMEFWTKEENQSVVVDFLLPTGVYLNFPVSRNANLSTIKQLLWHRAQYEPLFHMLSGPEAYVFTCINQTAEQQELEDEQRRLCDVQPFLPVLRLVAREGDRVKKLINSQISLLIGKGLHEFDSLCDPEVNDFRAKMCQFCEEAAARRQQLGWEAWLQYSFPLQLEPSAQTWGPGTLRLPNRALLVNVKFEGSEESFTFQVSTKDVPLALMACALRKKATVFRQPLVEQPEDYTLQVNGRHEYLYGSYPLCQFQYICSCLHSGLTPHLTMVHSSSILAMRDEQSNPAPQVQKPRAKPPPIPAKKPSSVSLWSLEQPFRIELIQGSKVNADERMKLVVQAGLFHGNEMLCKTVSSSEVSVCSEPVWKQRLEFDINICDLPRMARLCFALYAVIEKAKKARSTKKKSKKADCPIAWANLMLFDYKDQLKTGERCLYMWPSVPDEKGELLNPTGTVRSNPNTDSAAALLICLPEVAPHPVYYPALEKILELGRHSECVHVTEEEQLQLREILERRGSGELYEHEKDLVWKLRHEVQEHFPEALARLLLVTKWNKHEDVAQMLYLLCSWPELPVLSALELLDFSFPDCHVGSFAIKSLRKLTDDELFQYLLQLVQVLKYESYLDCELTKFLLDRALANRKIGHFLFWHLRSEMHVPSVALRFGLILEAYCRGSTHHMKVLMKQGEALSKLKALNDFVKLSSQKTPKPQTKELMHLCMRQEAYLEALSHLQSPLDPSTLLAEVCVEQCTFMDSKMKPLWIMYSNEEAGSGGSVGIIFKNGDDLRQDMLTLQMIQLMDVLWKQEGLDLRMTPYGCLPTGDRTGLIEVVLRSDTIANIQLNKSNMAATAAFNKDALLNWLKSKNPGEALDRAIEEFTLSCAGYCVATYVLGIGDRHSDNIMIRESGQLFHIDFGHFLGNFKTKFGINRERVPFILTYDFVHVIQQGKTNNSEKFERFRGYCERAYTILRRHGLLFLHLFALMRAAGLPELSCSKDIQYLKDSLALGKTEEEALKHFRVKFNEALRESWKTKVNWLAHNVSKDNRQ

[4] = target: T4, Phosphatidylinositol 4,5-bisphosphate 3-kinase catalytic subunit alpha isoform (Homo sapiens, UniProt P42336); test: Inhibition of PI3Kalpha (unknown origin) at 10 uM incubated for 60 mins by kinase-glo luminescence assay
T4 sequence (P42336 whole entry, canonical isoform): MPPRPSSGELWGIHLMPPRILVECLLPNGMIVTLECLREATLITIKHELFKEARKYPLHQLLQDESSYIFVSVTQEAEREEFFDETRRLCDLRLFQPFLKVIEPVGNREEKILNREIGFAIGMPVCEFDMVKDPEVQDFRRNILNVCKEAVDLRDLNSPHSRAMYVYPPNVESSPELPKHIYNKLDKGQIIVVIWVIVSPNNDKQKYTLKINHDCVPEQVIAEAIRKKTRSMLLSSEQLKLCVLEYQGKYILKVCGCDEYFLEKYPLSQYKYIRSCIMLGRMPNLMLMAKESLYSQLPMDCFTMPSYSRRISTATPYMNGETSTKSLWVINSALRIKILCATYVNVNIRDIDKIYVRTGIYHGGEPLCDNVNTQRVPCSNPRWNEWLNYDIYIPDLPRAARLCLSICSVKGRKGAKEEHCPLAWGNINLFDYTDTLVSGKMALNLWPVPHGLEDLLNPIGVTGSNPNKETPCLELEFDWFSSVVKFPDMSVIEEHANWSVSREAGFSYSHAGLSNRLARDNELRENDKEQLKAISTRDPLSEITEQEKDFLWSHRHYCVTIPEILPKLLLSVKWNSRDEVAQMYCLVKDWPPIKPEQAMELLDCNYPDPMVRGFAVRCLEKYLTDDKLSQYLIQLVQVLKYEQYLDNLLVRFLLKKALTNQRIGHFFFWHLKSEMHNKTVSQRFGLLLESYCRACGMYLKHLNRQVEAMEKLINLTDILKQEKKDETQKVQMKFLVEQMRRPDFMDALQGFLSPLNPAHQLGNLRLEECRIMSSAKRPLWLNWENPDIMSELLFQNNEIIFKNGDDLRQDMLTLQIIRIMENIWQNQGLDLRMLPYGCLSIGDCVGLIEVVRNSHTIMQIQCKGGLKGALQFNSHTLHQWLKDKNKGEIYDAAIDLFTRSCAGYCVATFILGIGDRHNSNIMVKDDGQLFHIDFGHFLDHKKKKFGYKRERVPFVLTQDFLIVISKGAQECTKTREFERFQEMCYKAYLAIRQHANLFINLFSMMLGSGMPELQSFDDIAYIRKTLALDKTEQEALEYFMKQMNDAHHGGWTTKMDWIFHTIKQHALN

[5] = target: Phosphatidylinositol 4,5-bisphosphate 3-kinase catalytic subunit gamma isoform (Homo sapiens) (UniProt P48736); test: Inhibition of PI3Kgamma (unknown origin) at 10 uM incubated for 60 mins by kinase-glo luminescence assay
Sequence of Phosphatidylinositol 4,5-bisphosphate 3-kinase catalytic subunit gamma isoform (Homo sapiens) (P48736 whole entry, looked up, canonical isoform): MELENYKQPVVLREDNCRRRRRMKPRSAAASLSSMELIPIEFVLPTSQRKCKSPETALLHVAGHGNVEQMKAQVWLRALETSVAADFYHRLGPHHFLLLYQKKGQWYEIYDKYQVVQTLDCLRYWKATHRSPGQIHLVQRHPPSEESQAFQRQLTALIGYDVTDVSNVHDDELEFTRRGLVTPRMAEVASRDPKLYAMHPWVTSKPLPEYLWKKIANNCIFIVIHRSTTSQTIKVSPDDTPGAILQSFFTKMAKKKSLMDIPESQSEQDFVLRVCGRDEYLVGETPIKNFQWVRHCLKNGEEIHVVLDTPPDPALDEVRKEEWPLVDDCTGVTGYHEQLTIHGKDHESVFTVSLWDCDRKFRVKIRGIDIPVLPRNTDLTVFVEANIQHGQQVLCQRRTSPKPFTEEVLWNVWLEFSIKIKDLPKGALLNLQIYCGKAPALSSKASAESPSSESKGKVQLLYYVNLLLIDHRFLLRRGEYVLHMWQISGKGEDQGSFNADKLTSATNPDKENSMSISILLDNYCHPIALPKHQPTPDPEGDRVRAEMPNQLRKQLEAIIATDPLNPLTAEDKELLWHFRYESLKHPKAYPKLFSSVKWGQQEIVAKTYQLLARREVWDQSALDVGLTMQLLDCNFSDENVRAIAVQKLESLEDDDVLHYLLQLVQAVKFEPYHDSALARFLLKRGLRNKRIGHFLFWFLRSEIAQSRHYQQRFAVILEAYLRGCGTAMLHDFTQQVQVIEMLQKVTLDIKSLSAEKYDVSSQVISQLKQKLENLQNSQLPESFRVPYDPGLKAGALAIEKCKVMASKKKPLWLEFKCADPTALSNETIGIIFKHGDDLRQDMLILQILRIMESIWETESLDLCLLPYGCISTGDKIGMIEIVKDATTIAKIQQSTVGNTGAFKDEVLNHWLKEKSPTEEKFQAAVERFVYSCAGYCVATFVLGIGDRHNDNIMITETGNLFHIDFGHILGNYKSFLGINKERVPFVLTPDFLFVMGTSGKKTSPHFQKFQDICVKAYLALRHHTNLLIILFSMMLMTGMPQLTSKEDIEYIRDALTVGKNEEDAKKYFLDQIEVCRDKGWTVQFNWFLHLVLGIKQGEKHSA

[6] = target: T1, DNA-dependent protein kinase catalytic subunit; test: Inhibition of human DNA-PK using EPPLSQEAFADLWKK as substrate by HTRF assay
[7] = target: T5, Phosphatidylinositol 4,5-bisphosphate 3-kinase catalytic subunit delta isoform (Homo sapiens, UniProt O00329); test: Inhibition of PI3Kdelta (unknown origin) incubated for 60 mins by kinase-glo luminescence assay
T5 sequence (O00329 whole entry): T3 sequence (whole entry)

[8] = target: T2, Phosphatidylinositol 4,5-bisphosphate 3-kinase catalytic subunit beta isoform; test: Inhibition of PI3Kbeta (unknown origin) incubated for 60 mins by kinase-glo luminescence assay
Target sequence in this assay (P42338 whole entry, canonical isoform): as the sequence (P42338 whole entry, looked up, canonical isoform) above

[9] = target: T4, Phosphatidylinositol 4,5-bisphosphate 3-kinase catalytic subunit alpha isoform; test: Inhibition of PI3Kalpha (unknown origin) incubated for 60 mins by kinase-glo luminescence assay

Row | inhibition [1] [%] | inhibition [2] [%] | inhibition [3] [%] | inhibition [4] [%] | inhibition [5] [%] | IC50 [6] [µM] | IC50 [7] [µM] | IC50 [8] [µM] | IC50 [9] [µM] | Compound
1 | 7 | 13 | 0 | 11 | 0 |  |  |  |  | O=c1nc(N2CCOCC2)oc2ccc(-c3cccc(-c4ccccc4)c3)cc12
2 | 4 | 0 | 0 | 10 | 4 |  |  |  |  | O=c1nc(N2CCOCC2)oc2ccc(-c3cccc4ccccc34)cc12
3 | 8 | 17 | 0 | 7 | 0 |  |  |  |  | COc1ccc(-c2ccc3oc(N4CCOCC4)nc(=O)c3c2)cc1
4 | 23 | 29 | 0 | 3 | 4 |  |  |  |  | O=c1nc(N2CCOCC2)oc2ccc(/C=C/c3ccccc3)cc12
5 |  |  |  |  |  | 0.3 | 0.95 |  |  | O=c1cc(N2CCOCC2)oc2c(-c3ccccc3)cccc12 [LY-294002]
6 |  | 0 |  | 16 | 0 | 12.3 | 2.6 |  |  | COc1ccc(-c2cc(Cl)cc3c(=O)nc(N4CCOCC4)oc23)cc1
7 |  |  | 37 | 26 | 24 | 78.4 |  | > 10 |  | O=c1nc(N2CCOCC2)oc2c(-c3cccnc3)cccc12
8 |  |  |  |  | 31 | 15.7 | 9 | 3.2 | 10 | O=c1nc(N2CCOCC2)oc2c(-c3ccc(CO)cc3)cccc12
9 | 24 |  |  |  |  |  |  |  |  | O=c1nc(N2CCOCC2)oc2ccc(-c3cccs3)cc12
10 | 21 |  |  |  |  |  |  |  |  | O=c1nc(N2CCOCC2)oc2ccc(-c3ccsc3)cc12
11 | 7 | 0 | 0 | 10 | 10 |  |  |  |  | O=c1nc(N2CCOCC2)oc2ccc(-c3ccc(Cl)cc3)cc12
12 |  | 15 | 16 | 35 | 14 | 5.77 |  |  |  | O=c1nc(N2CCOCC2)oc2c(-c3cc4ccccc4s3)cc(Cl)cc12
13 | 8 |  |  |  |  |  |  |  |  | NC(=O)c1ccc(-c2ccc3oc(N4CCOCC4)nc(=O)c3c2)cc1
14 | 7 |  |  |  |  |  |  |  |  | Nc1cccc(-c2ccc3oc(N4CCOCC4)nc(=O)c3c2)c1
15 | 11 | 0 | 0 | 7 | 0 |  |  |  |  | O=c1nc(N2CCOCC2)oc2ccc(-c3ccc(CO)cc3)cc12
16 | 12 | 6 | 0 | 5 | 0 |  |  |  |  | O=c1nc(N2CCOCC2)oc2ccc(-c3cccc4c3oc3ccccc34)cc12
17 | 1 | 0 | 0 | 2 | 9 |  |  |  |  | O=c1nc(N2CCOCC2)oc2ccc(-c3ccccc3)cc12
18 |  | 59 | 36 | 0 | 1 | 0.564 |  |  |  | O=c1nc(N2CCOCC2)oc2c(-c3cccc4c3sc3ccccc34)cc(Cl)cc12
19 |  |  | 4 | 13 | 0 | 63.5 |  | 10 |  | Nc1cccc(-c2cccc3c(=O)nc(N4CCOCC4)oc23)c1
20 | 6 | 36 | 3 | 11 | 0 |  |  |  |  | O=c1nc(N2CCOCC2)oc2ccc(-c3cccnc3)cc12
21 |  | 15 |  |  | 17 | 2.12 | 3.7 |  | 10 | O=c1nc(N2CCOCC2)oc2c(-c3cc4ccccc4s3)cccc12
22 |  | 34 |  |  | 16 | 10.9 | 10 |  | > 10 | O=c1nc(N2CCOCC2)oc2c(-c3ccc(Cl)cc3)cccc12
23 | 0 | 20 | 0 | 3 | 3 |  |  |  |  | O=c1nc(N2CCOCC2)oc2ccc(-c3cc4ccccc4s3)cc12
24 |  | 0 |  | 42 | 0 | 6.05 | 10 |  |  | O=c1nc(N2CCOCC2)oc2c(-c3cccs3)cc(Cl)cc12
